The text below walks through data of patent US20030091533A1, “Regulation of mononuclear phagocyte stimulation” (priority 2001, published 2003).

Holding throughout (format): cell-based, human
Assay [1] relates to LPS-stimulated PBM. The assay can be described thus: TNF-α release, cytotoxic bioassay with WEHI 164 clone 13 cells, PBM. As to conditions: preincubated 24 hour with cytokine (IL-9, IL-4 20 ng/ml, IFN-γ 200 U/ml) or medium, LPS 1 μg/ml 20 h; without LPS 10.2±4.1. As for the experimental part: (§1) PBM and AM obtained as described infra (1×10^6 PBM, 0.5×10^6 AM) were preincubated for 24 hour with cytokines, IL-4, IL-9 (20 ng/ml) and IFN-γ (200 U/ml) before the stimulation by LPS (1 μg/ml) for 20 h. Supernatants were harvested and frozen at −20° C. until cytokine titration. TNF-α release was determined in supernatants by a cytotoxic bioassay using WEHI 164 clone 13 target cells (Espevik and Nissen-Meyer, J. Immunol. Methods, 95:99-105 (1986) (incorporated herein by reference)), while IL-8 was quantitated in the same supernatants by ELISA. FIG. 5 depicts the effects of IL-9, IL-4, and IFN-γ on the release of TNFα (A) and IL-8 (B) by LPS-stimulated PBM and AM. Data are means±SEM (n=3). *P<0.001 compared with unstimulated cells; **P<0.05 compared with cells preincubated with medium.
(§2) Cells (1×10^6 PBM or 0.5×10^6 AM/well) were distributed in 24-well plates (Falcon), preincubated in cRPMI for 24 hours at 37° C., 5% CO2 with cytokines (IL-9, IL-4 (20 ng/ml) and IFN-γ (200 U/ml)) and stimulated for 20 hours with 1 μg/ml LPS without removing cytokines. Supernatants were harvested and frozen at −20° C. until cytokine titration. Release of TNF-α was quantified by a cytotoxicity bioassay using WEHI 164 cells clone 13, as previously described (Espevik and Nissen-Meyer, J. Immunol. Methods, 95:99-105 (1986) incorporated herein by reference), using rhTNF-α from Boehringer as a standard. IL-8, IL-10 and TGF-β1 concentrations were determined by ELISA. A kit from CLB (Amsterdam, The Netherlands) was used for IL-10 quantitation, following the manufacturer's protocol. A kit from Biosource allowed to determine TGF-β1 after the release from its latent complexes by a treatment of supernatants with ethanol acid (‘acid-treated supernatants’); TGF-P 1 was also assessed in crude supernatants (‘untreated supernatants’). […] The reaction was then developed in 0.03% v/v H2O2 substrate and 0.42 mM 3,3′,5,5′-tetramethylbenzidine as chromogen in 100 mM sodium acetate/citric acid buffer (pH 4.9), stopped with 2 M H2SO4, and read in a plate spectrometer at 450 nm. […]

Assay [2] concerns LPS-stimulated PBM. The assay can be described thus: IL-8 release by ELISA, PBM. The conditions noted are these: for effect on IL-8 release by LPS-stimulated PBM: preincubated 24 hour, LPS 20 hour. As for the experimental part:
as §1, §2
For orientation: In an ELISA, binding on a coated surface is turned into a signal by an enzyme label.

The test system of a further assay is LPS-stimulated AM. The assay can be described thus: Intracellular oxidative burst, DCFH oxidation assay, AM. As to conditions: for oxidative burst in LPS-stimulated AM with IFN-γ: preincubated 24 hour with cytokine 20 ng/ml in the presence of IFN-γ 200 U/ml, LPS 1 μg/ml 20 hour; for LPS-stimulated oxidative burst in AM: preincubation 24 hour with cytokine 20 ng/ml, then LPS 1 μg/ml 20 hour, without IFN-γ. As for the experimental part: Intracellular oxidative capacity was assessed essentially as described by Bass et al., J. Immunol., 130:1910-1917 (1983) (incorporated herein by reference) as described infra.
Cells (0.2×10^6) were preincubated for 24 hour with IL-9 or IL-4 (20 ng/ml) in the presence of IFN-γ (200 U/ml) before stimulation for 20 hour with LPS (1 μg/ml). The intracellular oxidative capacity was measured through the DCFH oxidation assay as describe herein. FIG. 3 depicts the effect of IFN-γ on the inhibition mediated by IL-9 and IL-4 on the oxidative burst in LPS-stimulated PBM (A) and AM (B).
Table 1. Specific blockade of the IL-9 inhibitory effect on oxidative burst in LPS-15 stimulated PBM and AM by anti-hIL-9R mAb. Cells (0.2×10^6) were preincubated with neutralizing mAb against hIL-9R (AH9R7, 10 μg/ml), or with control mIgG2b (10 μg/ml), 1 hour before incubation with IL-9 (20 ng/ml) for 24 hour without removing mAb, and stimulated by LPS (1 μg/ml) for 20 h. Intracellular oxidative capacity was evaluated by the DCFH oxidation assay. Data are means±SEM obtained from three experiments, triplicate conditions being performed in each experiment. *P<0.001 compared with cells preincubated with IL-9 (with or without control mIgG2b).
Intracellular oxidative capacity was assessed as described by Bass et al., (Bass et al., J. Immunol. 130:1910-1917 (1983)). Briefly, the PBM and AM samples were distributed in 96-well plates with flat bottoms (Falcon) to provide 0.2×10^6cells/well. The cells were preincubated for 24 hour at 37° C., 5% CO2 with cytokines (200 u/ml for IFN-y, 20 ng/ml for IL-9 and 20 ng/ml; for IL-4) in cRPMI before being stimulated for 20 hours with LPS (1 μg/ml) without removing the cytokines. At the end of incubation with cytokines and/or LPS, cells were loaded for 15 min with 15 μM DCFH-DA in cRPMI which, after passive penetration into cells, is hydrolyzed into nonfluorescent polar DCFH and trapped inside the cells. DCFH is then oxidized into highly fluorescent DCF according to the intracellular amount of hydrogen peroxide (H2O2) produced by the respiratory burst. After three washings with phosphate-buffered saline (PBS, pH 7.4), cells were lysed in 0.1% v/v Triton X100 (Sigma) in PBS, and fluorescence was quantified in a computerized microplate spectrofluorimeter (Packard Instruments, Downers Grove, Ill., USA) at 485 nm excitation/530 nm emission wavelengths. DCF concentrations were deduced from a standard curve of known concentrations of fluorescent DCF (ranging from 0.08 to 10 μM in lysis buffer) Results were corrected for total protein concentration determined in cell lysates by the bicinchoninic acid-based method (Pierce, Rockford, Ill., USA), and were expressed as nmoles DCF/mg cell protein.

Several values for one entry are separate records, joined by “and”; a condition that tells them apart may be missing. Equal values may be shown once.

Take “IL-4: Th2 cytokine interleukin-4 used as comparator, 20 ng/ml”: the “TNF-α release by LPS-stimulated PBM” value in the assay on LPS-stimulated PBM [1] stood at 72.5 ± 21.5 pg/mL. Moreover, the “IL-8 release by LPS-stimulated PBM” value in the assay with LPS-stimulated PBM [2] (preincubated 24 hour with cytokine or medium, LPS 1 μg/ml 20 hour, without LPS 10.0±2.4) was found to be 20.1 ± 2.1 ng/mL. Moreover, in the assay on LPS-stimulated AM, the “oxidative burst in LPS-stimulated AM with IFN-γ” value turned out to be 13.8±1.3 nmoles DCF/mg protein and the “LPS-stimulated oxidative burst in AM” value amounted to 6.1±0.4 nmoles DCF/mg protein.
“IL-9: Human IL-9 purified from SF9 insect cell cultures infected with recombinant baculovirus”: the “TNF-α release by LPS-stimulated PBM” value in the assay on LPS-stimulated PBM [1] came to 84.2 ± 17.2 pg/mL. Besides, the “effect on IL-8 release by LPS-stimulated PBM” value in the assay on LPS-stimulated PBM [2] is “no significant modulation”. Moreover, in the assay on LPS-stimulated AM (Table 1, AM, mAb 10 μg/ml 1 hour before IL-9 20 ng/ml 24 hour, LPS 1 μg/ml 20 h, means±SEM, medium 5.8 ± 0.6), the “Oxidative burst (nmoles DCF/mg protein)” value worked out at 6.5 ± 0.5 nmoles DCF/mg protein. Also, in the assay on LPS-stimulated AM, the “oxidative burst in LPS-stimulated AM with IFN-γ” value amounted to 6.6±1.2 nmoles DCF/mg protein; the “LPS-stimulated oxidative burst in AM” value is 6.5±0.5 nmoles DCF/mg protein and 6.5±0.6 nmoles DCF/mg protein.

B1: IFN-γ: Interferon gamma, primes mononuclear phagocytes, 200 U/ml (protein, UniProt P01579 24-161, looked up)
Interferon gamma: QDPYVKEAENLKKYFNAGHSDVADNGTLFLGILKNWKEESDRKIMQSQIVSFYFKLFKNFKDDQSIQKSVETIKEDMNVKFFNSNKKKRDDFEKLTNYSVTDLNVQRKAIHELIQVMAELSPAAKTGKRKRSQMLFRG
With B1, the “TNF-α release by LPS-stimulated PBM” value with LPS-stimulated PBM [1] was determined as 289.8 ± 12.9 pg/mL. The “effect on IL-8 release by LPS-stimulated PBM” value in the assay on LPS-stimulated PBM [2] is “no significant modulation”. Besides, the “effect on LPS-stimulated oxidative burst in AM” value in the assay with LPS-stimulated AM (preincubation 24 hour, LPS 20 hour) was “slightly increased”.
